{"source": "paper PMC8985968", "about": "“Purification and characterization of antifungal lipopeptide produced by Bacillus velezensis isolated from raw honey” (PLoS ONE, 2022)", "origin": "cited, not measured here", "key": {"[1]": {"system": "Aspergillus, Fusarium, Chrysosporium, Candida albicans, Trichosporium, Alternaria, and Cladosporium", "conditions": "isolated from crude extract of B. subtilis", "from_the_text": "In a study by Pathak and Keharia (2014), iturin isomers and surfactin families were isolated from crude extract of B. subtilis. […] Similar t ..."}, "mouse models": {"system": "mouse models", "protocol": "The safety of the producer strains and their products need to be evaluated to achieve broader application of iturin A produced by Bacillus species. […] B. velezensis FZB42 type strain, which is closely related to our isolates, was also evaluated by US Environmental Protection Agency (EPA) and considered n ..."}}}
{"substance": "Iturin A2", "values": [{"measurement": "Antifungal spectrum", "setting": "[1]", "result": "broad spectrum antifungal activities"}]}
{"substance": "iturin", "values": [{"measurement": "Acute toxicity test", "setting": "mouse models; intragastric, 7-day, 5000 mg/kg, no significant damage to liver, kidney, or small intestines", "result": "safe and non-toxic"}, {"measurement": "Subacute toxicity test", "setting": "mouse models; intragastric, 28-day, 2000 mg/kg, no significant damage to liver, kidney, or small intestines", "result": "safe and non-toxic"}]}
{"substance": "Iturin A3/A4/A5", "values": [{"measurement": "Antifungal spectrum", "setting": "[1]", "result": "broad spectrum antifungal activities"}]}
{"substance": "iturin A", "values": [{"measurement": "Organ-specific toxicity after discontinuation of treatment", "setting": "mouse models; mouse models", "result": "reversible"}, {"measurement": "Tissue deposition of iturin A", "setting": "mouse models; mouse models", "result": "deposited in liver, lung, and spleen"}, {"measurement": "Toxicity of iturin A in mouse models", "setting": "mouse models; preliminary toxicology study, acute and subacute", "result": "can induce hepatotoxicity"}]}
